Data published in ChEMBL document CHEMBL1151395, “Cytotoxic Flavones From Centaurea urvillei” (J Nat Prod, 1982).
Activity calls are given as the source filed them. No cut-off for these calls is given here.

System: Fibroblast
Assay: Cytotoxicity against L-strain mouse fibroblasts at 0.05 mg/ml
Assay type: functional, cell-based

## COc1c(O)cc2oc(-c3ccc(O)cc3)cc(=O)c2c1O
  Activity: Active
